{"source": "paper PMC12177571", "about": "“Glycosidase-activated prodrugs of a cytotoxic iron chelator for targeted cancer therapy” (RSC Medicinal Chemistry, 2025)", "data": [{"molecular_target": "T1, β-galactosidase (Escherichia coli, UniProt P00722)", "T1 construct": "purchased Roche; host or cells: E. coli overproducer", "T1 sequence (P00722 2-1024)": "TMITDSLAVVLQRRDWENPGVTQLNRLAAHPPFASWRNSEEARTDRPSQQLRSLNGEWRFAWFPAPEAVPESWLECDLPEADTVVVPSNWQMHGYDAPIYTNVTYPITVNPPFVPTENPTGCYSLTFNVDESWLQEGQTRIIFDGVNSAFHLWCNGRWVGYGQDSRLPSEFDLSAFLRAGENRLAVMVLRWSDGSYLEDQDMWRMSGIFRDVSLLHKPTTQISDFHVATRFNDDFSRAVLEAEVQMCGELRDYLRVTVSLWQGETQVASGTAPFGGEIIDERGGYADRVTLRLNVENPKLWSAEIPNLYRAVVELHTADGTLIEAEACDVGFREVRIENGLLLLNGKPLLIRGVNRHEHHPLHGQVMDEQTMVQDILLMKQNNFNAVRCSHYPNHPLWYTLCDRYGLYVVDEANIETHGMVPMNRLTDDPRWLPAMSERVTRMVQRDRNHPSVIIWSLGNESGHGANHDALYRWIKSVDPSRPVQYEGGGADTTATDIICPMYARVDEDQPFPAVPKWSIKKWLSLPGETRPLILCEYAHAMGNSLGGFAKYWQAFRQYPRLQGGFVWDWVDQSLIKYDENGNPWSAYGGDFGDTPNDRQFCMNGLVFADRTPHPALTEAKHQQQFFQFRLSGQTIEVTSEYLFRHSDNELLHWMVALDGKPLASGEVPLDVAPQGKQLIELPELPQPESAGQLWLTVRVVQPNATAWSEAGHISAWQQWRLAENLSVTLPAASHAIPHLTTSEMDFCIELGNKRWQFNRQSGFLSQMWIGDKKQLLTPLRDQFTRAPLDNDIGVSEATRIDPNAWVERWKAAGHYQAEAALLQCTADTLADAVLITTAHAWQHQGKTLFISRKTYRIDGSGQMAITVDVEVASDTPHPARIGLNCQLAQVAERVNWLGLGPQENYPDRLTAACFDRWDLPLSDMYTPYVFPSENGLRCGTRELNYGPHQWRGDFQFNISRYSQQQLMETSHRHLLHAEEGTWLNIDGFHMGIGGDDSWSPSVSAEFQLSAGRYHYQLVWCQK", "test": "AIE fluorescence study of release of 1 with β-galactosidase", "type": "biochemical, e.coli", "details": "20 μM in water, after 24 h incubation with 3 U β-galactosidase", "method": "(§1) The AIE fluorescence properties of 1 were used as a means of supporting the above conclusion. The emission of all glycosylated prodrugs is suppressed. Thus, solutions of each prodrug were prepared in water, and three enzyme units of β-galactosidase or β-glucosidase, as appropriate, were added to the prodrugs. Each mixture was then analysed by fluorescence spectroscopy after 24 h of incubation. […] This finding is consistent with a lack of enzymatic activation.\n(§2) Fig. 4 Relative emission intensity at 480 nm (*for 3b at 420 nm) of evaluated compounds at 20 μM before and after incubation with 3 U of the appropriate enzyme. TEXT PRINTED IN THE PICTURE: 1: Relative Emission 480 nm: 100% (Before incubation); Relative Emission 480 nm: 100% (After 24 h incubation) | 2a: Relative Emission 480 nm: 0% (Before incubation); Relative Emission 480 nm: 0% (After 24 h incubation) | 2b: Relative Emission 480 nm: 0% (Before incubation); Relative Emission 480 nm: 1% (After 24 h incubation) | 3a: Relative Emission 480 nm: 1% (Before incubation); Relative Emission 480 nm: 33% (After 24 h incubation) | 3b*: Relative Emission 480 nm: 1% (Before incubation); Relative Emission 480 nm: 11% (After 24 h incubation) […]\n(§3) Figure S25: Fluorescence spectra for excitation (blue) and emission (green) of 1 at a concentration of 20 μM in water.\n(§4) Figure S26: Fluorescence spectra for excitation (blue) and emission (green) of 2a at a concentration of 20 μM in water before (left) and after (right) incubation with 3 units of b-galactosidase for 24 h. […]\n(§5) Figure S28: Fluorescence spectra for excitation (blue) and emission (green) of 3a at a concentration of 20 μM in water before (left) and after (right) incubation with 3 units of β-galactosidase for 24 h. […]", "units": {"Relative emission intensity at 480 nm": "%"}, "values": [{"smiles": "OC[C@H]1OC(Oc2ccc(COc3ccccc3-c3nc(-c4ccccc4O)nn3-c3ccccc3)cc2)[C@H](O)[C@@H](O)[C@H]1O", "note": "(stereo partly shown) [3a]", "Relative emission intensity at 480 nm": 33}, {"smiles": "OC[C@H]1OC(Oc2ccccc2-c2nc(-c3ccccc3O)nn2-c2ccccc2)[C@H](O)[C@@H](O)[C@H]1O", "note": "(stereo partly shown) [2a]", "Relative emission intensity at 480 nm": 0}]}, {"molecular_target": "T1, β-galactosidase", "test": "AIE fluorescence study of release of 1 with β-galactosidase", "type": "biochemical, e.coli", "details": "20 μM in water, before incubation with 3 U β-galactosidase", "method": "as §1, §2, §3, §4, §5", "units": {"Relative emission intensity at 480 nm": "%"}, "values": [{"smiles": "OC[C@H]1OC(Oc2ccc(COc3ccccc3-c3nc(-c4ccccc4O)nn3-c3ccccc3)cc2)[C@H](O)[C@@H](O)[C@H]1O", "note": "(stereo partly shown) [3a]", "Relative emission intensity at 480 nm": 1}, {"smiles": "OC[C@H]1OC(Oc2ccccc2-c2nc(-c3ccccc3O)nn2-c2ccccc2)[C@H](O)[C@@H](O)[C@H]1O", "note": "(stereo partly shown) [2a]", "Relative emission intensity at 480 nm": 0}]}, {"molecular_target": "T1, β-galactosidase", "test": "AIE fluorescence study of release of 1 with β-galactosidase", "type": "biochemical, e.coli", "details": "water, three enzyme units of β-galactosidase, 0 h and 24 h", "method": "as §1, §2, §3, §4, §5", "values": [{"smiles": "OC[C@H]1OC(Oc2ccc(COc3ccccc3-c3nc(-c4ccccc4O)nn3-c3ccccc3)cc2)[C@H](O)[C@@H](O)[C@H]1O", "note": "(stereo partly shown) [3a]", "Fluorescence emission / release of 1 (in words)": "readily discernible release of 1"}, {"smiles": "OC[C@H]1OC(Oc2ccccc2-c2nc(-c3ccccc3O)nn2-c2ccccc2)[C@H](O)[C@@H](O)[C@H]1O", "note": "(stereo partly shown) [2a]", "Fluorescence emission / release of 1 (in words)": "no fluorescence emission was observed"}]}, {"system": "A549 cells", "test": "MTT cell viability assay, A549 cells", "type": "cell-based", "details": "Homo sapiens, 72 h incubation, mean and SD of three independent experiments, read-out: IC50 against A549", "method": "(§6) Next, the cytotoxicity of the prodrugs was assessed in the human lung cancer (A549) and human ovarian cancer (OvCar-3) cell lines: overexpressing β-glucosidase, and, overexpressing both β-glucosidase and β-galactosidase, respectively.[40,41] For this, a standard MTT assay was employed to generate the proliferation profiles (cf. ESI ^† Fig. S1–S5) and allowed us to calculate the IC50 values for each compound. GM5756 fibroblast cells were included as non-cancerous control.\n(§7) Cell culture. Ovcar-3 cells were maintained in RPMI-1640 medium (Invitrogen), A549 cells were maintained in high glucose (4.5 g/L) Dulbecco’s Modified Eagle’s medium (Invitrogen. Alle employed culture media were supplemented with 10% fetal bovine serum (Gibco), 2% penicillin/streptomycin (Sigma Aldrich), 1%GlutaMAX™-I (100x, Gibco), and 1% sodium pyruvate (100 mM, Gibco).\n(§8) Cells were kept under a humidified atmosphere of 10% CO2 and 90% air at 37°C. Cells were split when they reached 90% confluency. All employed cell lines were sourced from the German Collection of Microorganisms and Cell Cultures (Leibnitz Institute, DSMZ).\n(§9) Cell viability studies and MTT assays. Cells were harvested and plated on a 96-well plate in 100 µL growth medium at a density of 1500 cells per well. The cells were left to grow for 24 h at 37°C under a humidified atmosphere with 10% CO2. The next day, 100 µL of growth medium containing appropriate concentrations of the investigated compound were added to each well. As a control, the first row of wells was treated with 100 µL medium containing only the vehicle (1% DMSO); all wells contained a final concentration of 0.5% DMSO for the duration of the treatment. After incubation with the compound for 72 h, 50 µL of MTT solution (2.5 mg/mL 3-(4,5-dimethylthiazol-2-yl)-2,5-diphenyltetrazolium bromide dye in PBS buffer) was added to each well. After an additional incubation for 2 h, the supernatant was aspired off and 200 µL of DMSO was added to each well to solubilize the precipitated formazan dye. The produced formazan dye was quantified by measuring the optical density of the solution at 550 nm with a Tecan Infinite M Nano+ plate reader. A baseline correction was performed by subtracting a reference absorbance at 620 nm for each well. From the mean of the corrected absorbances for each set of equivalent wells, a dose-response curve was produced, which was then normalized to the wells containing untreated cells to allow for plate-to-plate comparison. The resulting dose-response curves were subjected to non-linear regression analysis performed in Microsoft Excel (version 16.64) to determine IC50 via the Hill-Langmuir model. Data is shown as the mean of three replicate experiments and error bars represent the standard deviation at each datum point.", "units": {"IC50": "µM"}, "values": [{"smiles": "OC[C@H]1OC(Oc2ccc(COc3ccccc3-c3nc(-c4ccccc4O)nn3-c3ccccc3)cc2)[C@H](O)[C@@H](O)[C@H]1O", "note": "(stereo partly shown) [3a]", "IC50": "44.1 ± 2.4"}, {"smiles": "OC[C@H]1OC(Oc2ccccc2-c2nc(-c3ccccc3O)nn2-c2ccccc2)[C@H](O)[C@@H](O)[C@@H]1O", "note": "(stereo partly shown) [2b]", "IC50": "> 100"}, {"smiles": "OC[C@H]1OC(Oc2ccc(COc3ccccc3-c3nc(-c4ccccc4O)nn3-c3ccccc3)cc2)[C@H](O)[C@@H](O)[C@@H]1O", "note": "(stereo partly shown) [3b]", "IC50": "7.4 ± 1.5"}, {"smiles": "OC[C@H]1OC(Oc2ccccc2-c2nc(-c3ccccc3O)nn2-c2ccccc2)[C@H](O)[C@@H](O)[C@H]1O", "note": "(stereo partly shown) [2a]", "IC50": "74.4 ± 14.1"}]}, {"system": "GM5756 fibroblast cells", "test": "MTT cell viability assay, GM5756 fibroblast cells (non-cancerous control)", "type": "cell-based", "details": "72 h incubation, mean and SD of three independent experiments, read-out: IC50 against GM5756", "method": "as §6, §7, §8, §9", "units": {"IC50": "µM"}, "values": [{"smiles": "OC[C@H]1OC(Oc2ccc(COc3ccccc3-c3nc(-c4ccccc4O)nn3-c3ccccc3)cc2)[C@H](O)[C@@H](O)[C@H]1O", "note": "(stereo partly shown) [3a]", "IC50": "> 100"}, {"smiles": "OC[C@H]1OC(Oc2ccccc2-c2nc(-c3ccccc3O)nn2-c2ccccc2)[C@H](O)[C@@H](O)[C@@H]1O", "note": "(stereo partly shown) [2b]", "IC50": "> 100"}, {"smiles": "OC[C@H]1OC(Oc2ccc(COc3ccccc3-c3nc(-c4ccccc4O)nn3-c3ccccc3)cc2)[C@H](O)[C@@H](O)[C@@H]1O", "note": "(stereo partly shown) [3b]", "IC50": "15.3 ± 2.3"}, {"smiles": "OC[C@H]1OC(Oc2ccccc2-c2nc(-c3ccccc3O)nn2-c2ccccc2)[C@H](O)[C@@H](O)[C@H]1O", "note": "(stereo partly shown) [2a]", "IC50": "> 100"}]}, {"system": "not listed separately", "test": "Fe(III) binding study by UV-vis spectroscopy", "details": "30 μM compound, excess FeCl3 (50 μM), methanol", "method": "With the prodrugs in hand, binding studies were carried out using UV-vis spectroscopy; this was done to confirm the Fe(III) binding ability of all new compounds. […] To evaluate whether 2a, 2b, 3a, and 3b were chelating Fe(III), each prodrug was similarly dissolved in a solution containing excess FeCl3.\nFig. 2 UV-vis absorption spectra for prodrugs 2a/b and 3a/b as well as 1 at a concentration of 30 μM with an excess of FeCl3 as Fe(III) source (50 μM) in methanol.\nUV-vis spectra were recorded in methanol containing the indicated ligand or prodrug at a concentration of 30 µM and as appropriate Fe(III) at a concentration of 50 µM. A stock solution of FeCl3 in DMSO was used as source of Fe(III) and ligands were added from a […] stock solution in DMSO. All samples contained a final concentration of <0.2% DMSO.\nFigure S7: UV-vis absorption spectra of 1, Fe(III), and 1 + Fe(III). The graph for 1 + Fe(III) (Numerically) was constructed by numerically adding the respective signals of Fe(III) and 1 to show what graph could be expected if the two species were in the same solution without interacting.\nFigure S8: UV-vis absorption spectra of 2a, Fe(III), and 2a + Fe(III). The graph for 2a + Fe(III) (Numerically) was constructed by numerically adding the respective signals of Fe(III) and 2a to show what graph could be expected if the two species were in the same solution without interacting. […]", "values": [{"smiles": "OC[C@H]1OC(Oc2ccc(COc3ccccc3-c3nc(-c4ccccc4O)nn3-c3ccccc3)cc2)[C@H](O)[C@@H](O)[C@H]1O", "note": "(stereo partly shown) [3a]", "Absorbance at 510 nm (Fe(III) chelation band)": "no relevant absorbance at 510 nm"}, {"smiles": "OC[C@H]1OC(Oc2ccccc2-c2nc(-c3ccccc3O)nn2-c2ccccc2)[C@H](O)[C@@H](O)[C@@H]1O", "note": "(stereo partly shown) [2b]", "Absorbance at 510 nm (Fe(III) chelation band)": "no relevant absorbance at 510 nm"}, {"smiles": "OC[C@H]1OC(Oc2ccc(COc3ccccc3-c3nc(-c4ccccc4O)nn3-c3ccccc3)cc2)[C@H](O)[C@@H](O)[C@@H]1O", "note": "(stereo partly shown) [3b]", "Absorbance at 510 nm (Fe(III) chelation band)": "no relevant absorbance at 510 nm"}, {"smiles": "OC[C@H]1OC(Oc2ccccc2-c2nc(-c3ccccc3O)nn2-c2ccccc2)[C@H](O)[C@@H](O)[C@H]1O", "note": "(stereo partly shown) [2a]", "Absorbance at 510 nm (Fe(III) chelation band)": "no relevant absorbance at 510 nm"}]}, {"system": "OvCar-3 cells", "test": "MTT cell viability assay, OvCar-3 cells", "type": "cell-based", "details": "Homo sapiens, 72 h incubation, mean and SD of three independent experiments, read-out: IC50 against OvCar-3", "method": "as §6, §7, §8, §9", "units": {"IC50": "µM"}, "values": [{"smiles": "OC[C@H]1OC(Oc2ccc(COc3ccccc3-c3nc(-c4ccccc4O)nn3-c3ccccc3)cc2)[C@H](O)[C@@H](O)[C@H]1O", "note": "(stereo partly shown) [3a]", "IC50": "9.1 ± 1.6"}, {"smiles": "OC[C@H]1OC(Oc2ccccc2-c2nc(-c3ccccc3O)nn2-c2ccccc2)[C@H](O)[C@@H](O)[C@@H]1O", "note": "(stereo partly shown) [2b]", "IC50": "76.5 ± 0.8"}, {"smiles": "OC[C@H]1OC(Oc2ccc(COc3ccccc3-c3nc(-c4ccccc4O)nn3-c3ccccc3)cc2)[C@H](O)[C@@H](O)[C@@H]1O", "note": "(stereo partly shown) [3b]", "IC50": "3.7 ± 0.3"}, {"smiles": "OC[C@H]1OC(Oc2ccccc2-c2nc(-c3ccccc3O)nn2-c2ccccc2)[C@H](O)[C@@H](O)[C@H]1O", "note": "(stereo partly shown) [2a]", "IC50": "67.6 ± 13"}]}]}
